# Reference: patent US20090004287A1, “Disinfectant formulations containing quaternary ammonium compounds and hydrogen peroxide” (priority 2007, published 2009)
# Assays:
# [1] = test system: P. aeruginosa; assay: Efficacy against P. aeruginosa dried on microplate wells (growth/no growth, 4 replicates); type: cell-based; details: 5% fetal bovine serum; for Positive cells out of a total of 4 after 5 min: contact time 5 min, diluted in water of 400 ppm hardness, positive = ineffective disinfection; for Positive cells out of a total of 4 after 10 min: contact time 10 min; for Positive cells out of a total of 4 after 10 min / Positive cells out of a total of 4 after 11 min / Positive cells out of a total of 4 after 13 min / Positive cells out of a total of 4 after 16 min / Positive cells out of a total of 4 after 20 min / Positive cells out of a total of 4 after 21 min / Positive cells out of a total of 4 after 25 min: water of 400 ppm hardness; for Positive cells out of a total of 4 after 11 min: contact time 11 min; for Positive cells out of a total of 4 after 13 min: contact time 13 min; for Positive cells out of a total of 4 after 16 min: contact time 16 min; for Positive cells out of a total of 4 after 20 min: contact time 20 min; for Positive cells out of a total of 4 after 21 min: contact time 21 min; for Positive cells out of a total of 4 after 25 min: contact time 25 min
# Description: All solutions were diluted in water of 400 ppm hardness and all concentrations were expressed in ppm. Each of the solutions was tested in 4 replicates as described below. The numbers in Table 2 below indicate the number of “positive” cells or ineffective disinfection of 4 replicates. Various contact times noted on the tables were evaluated.
# Flat bottom microplate wells were inoculated with 15 μL each of a suspension of 10% P. aeruginosa+5% fetal bovine serum in a saline solution, 4.5×10^7 cfu/mL using a Quadra Tower 400 Series High Throughput apparatus (Tomtec Inc., Hamden, Conn.). The plates were dried with cover open for 40 minutes at 36° C. Then, 120 μL of each test substance was transferred from the deep-well block to the test wells. The test organisms were exposed to the test substance for different contact times, after which the substances were removed with the Quadra and 150 μL of modified AOAC Letheen neutralizer+0.5% Na thiosulfate/growth broth was added to each well. The microplates were incubated at 36° C. for 24 hours and scored for growth/no growth.
# [2] = Hydrogen peroxide stability in the presence of didecyldimethylammonium bicarbonate/carbonate; type: physicochemical
# Text: Hydrogen Peroxide Stability in the Presence of Didecyldimethylammonium Bicarbonate/-Carbonate
Compound,Positive cells out of a total of 4 after 5 min [1],Positive cells out of a total of 4 after 10 min [1],Positive cells out of a total of 4 after 11 min [1],Positive cells out of a total of 4 after 13 min [1],Positive cells out of a total of 4 after 16 min [1],Positive cells out of a total of 4 after 20 min [1],Positive cells out of a total of 4 after 21 min [1],Positive cells out of a total of 4 after 25 min [1],"% Hydrogen Peroxide Concentration at Time/Temperature: 1 Month/40° C. ([2]; 1 month, 40° C.) [%]","% Hydrogen Peroxide Concentration at Time/Temperature: 1 Month/RT ([2]; 1 month, room temperature) [%]","% Hydrogen Peroxide Concentration at Time/Temperature: 1 Week/40° C. ([2]; 1 week, 40° C.) [%]","% Hydrogen Peroxide Concentration at Time/Temperature: 1 Week/RT ([2]; 1 week, room temperature) [%]","% Hydrogen Peroxide Concentration at Time/Temperature: Initial ([2]; Initial, by weight, analytical accuracy ±3% relative) [%]"
"OO [H2O2 600 ppm, hydrogen peroxide]",4,4,2,0,0,0,0,0,,,,,
didecyldimethylammonium carbonate/bicarbonate [Quat 500 ppm],4,4,4,4,1,0,1,0,,,,,
"OO [H2O2 2,000 ppm, hydrogen peroxide]",0,0,0,0,0,0,0,0,,,,,
"OO [3.0% H2O2, hydrogen peroxide]",,,,,,,,,1.82,2.85,2.74,2.99,3.11
